In publication PMC5075789, “Orphan GPR110 (ADGRF1) targeted by N-docosahexaenoylethanolamine in development of neurons and cognitive function” (Nature Communications, 2016):

What was measured:
[1] = molecular target: T1, hGPR110-HA (human GPR110, ADGRF1) (Homo sapiens, UniProt Q5T601); test: microscale thermophoresis; settings: read-out: apparent Kd
T1 construct: full-length ORF, 910 residues, C-terminal HA tag kept, expressed in HEK293 (CRE-luc2P HEK293 for cAMP); immunopurified with anti-HA for MST; glycosylated, about 130 and 110 kD
T1 sequence (Q5T601 20-566): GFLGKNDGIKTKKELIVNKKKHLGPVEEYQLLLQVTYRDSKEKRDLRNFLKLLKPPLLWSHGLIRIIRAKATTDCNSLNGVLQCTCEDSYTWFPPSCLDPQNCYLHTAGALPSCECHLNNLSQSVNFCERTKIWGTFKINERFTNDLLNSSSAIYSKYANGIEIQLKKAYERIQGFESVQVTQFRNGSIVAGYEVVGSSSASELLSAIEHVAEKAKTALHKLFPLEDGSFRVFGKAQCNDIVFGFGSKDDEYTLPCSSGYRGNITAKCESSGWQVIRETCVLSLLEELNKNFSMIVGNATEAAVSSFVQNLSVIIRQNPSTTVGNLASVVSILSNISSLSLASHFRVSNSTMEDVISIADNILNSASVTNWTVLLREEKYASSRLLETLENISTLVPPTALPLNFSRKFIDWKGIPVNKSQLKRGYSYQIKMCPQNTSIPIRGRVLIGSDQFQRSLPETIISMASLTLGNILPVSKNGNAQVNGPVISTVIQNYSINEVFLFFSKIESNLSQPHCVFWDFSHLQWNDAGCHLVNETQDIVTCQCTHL
T1 sequence (Q5T601 567-910): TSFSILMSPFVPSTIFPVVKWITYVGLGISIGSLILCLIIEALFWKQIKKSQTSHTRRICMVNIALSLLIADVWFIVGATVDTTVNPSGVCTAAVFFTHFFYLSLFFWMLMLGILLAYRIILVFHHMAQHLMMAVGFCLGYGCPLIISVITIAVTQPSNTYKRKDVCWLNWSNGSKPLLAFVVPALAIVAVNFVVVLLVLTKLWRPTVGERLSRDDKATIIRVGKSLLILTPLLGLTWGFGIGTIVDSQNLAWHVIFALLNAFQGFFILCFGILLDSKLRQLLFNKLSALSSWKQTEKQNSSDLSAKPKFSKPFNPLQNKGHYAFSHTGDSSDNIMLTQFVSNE
Source text: microscale thermophoresis on hGPR110-HA (human GPR110, ADGRF1) | immunopurified hGPR110 and bodipy-synaptamide, a fluorescent synaptamide analogue, indicated apparent Kd

[2] = molecular target: T2, mGPR110-HA (mouse GPR110) (Mus musculus, UniProt Q8VEC3); test: in-cell cross-linking (DSS), streptavidin pull-down, western blot; type: cell-based; settings: 1 μM G1*, live HEK293 cells, 25 °C; cross-linked by 1 mM DSS
T2 construct: gene Adgrf1; full-length ORF, C-terminal HA tag kept, expressed in HEK293; about 100 kD main band
T2 sequence (Q8VEC3 21-564): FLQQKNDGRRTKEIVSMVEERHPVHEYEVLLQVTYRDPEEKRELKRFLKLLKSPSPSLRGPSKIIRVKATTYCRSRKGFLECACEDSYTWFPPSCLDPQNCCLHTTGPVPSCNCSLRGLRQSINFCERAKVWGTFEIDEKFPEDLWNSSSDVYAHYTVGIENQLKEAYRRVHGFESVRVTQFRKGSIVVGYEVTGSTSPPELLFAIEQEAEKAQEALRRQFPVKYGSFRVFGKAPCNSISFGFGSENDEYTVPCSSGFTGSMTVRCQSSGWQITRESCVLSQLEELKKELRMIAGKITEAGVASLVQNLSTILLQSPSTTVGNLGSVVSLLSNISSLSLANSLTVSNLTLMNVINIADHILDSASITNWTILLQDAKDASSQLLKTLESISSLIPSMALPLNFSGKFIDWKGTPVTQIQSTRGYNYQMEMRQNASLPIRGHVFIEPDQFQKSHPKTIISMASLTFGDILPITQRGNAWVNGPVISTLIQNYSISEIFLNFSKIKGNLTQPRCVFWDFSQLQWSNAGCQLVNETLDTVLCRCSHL
T2 sequence (Q8VEC3 565-908): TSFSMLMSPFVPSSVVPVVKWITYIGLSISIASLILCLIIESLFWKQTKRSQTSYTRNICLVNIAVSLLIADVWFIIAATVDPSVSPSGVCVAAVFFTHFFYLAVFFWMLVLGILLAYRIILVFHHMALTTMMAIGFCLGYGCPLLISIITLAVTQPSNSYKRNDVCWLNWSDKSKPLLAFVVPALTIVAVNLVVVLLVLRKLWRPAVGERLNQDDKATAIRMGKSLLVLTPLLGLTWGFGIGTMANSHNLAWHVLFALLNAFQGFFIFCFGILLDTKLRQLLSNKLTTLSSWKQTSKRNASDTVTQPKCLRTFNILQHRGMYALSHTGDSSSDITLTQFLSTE

[3] = molecular target: T1, hGPR110-HA (human GPR110, ADGRF1); test: streptavidin pull-down and western blot; type: binding; settings: 1 μM G1, HEK293 lysate
[4] = molecular target: T2, mGPR110-HA (mouse GPR110); test: streptavidin pull-down and western blot; type: binding; settings: 1 μM G1, HEK293 lysate, PBS with 0.5% Triton X-100

CC/C=C\C/C=C\C/C=C\C/C=C\C/C=C\C/C=C\CCC(=O)NCCNC(=O)CCCCC1=C2C(C)=CC(C)=[N+]2[B-](F)(F)n2c(C)cc(C)c21 [bodipy-synaptamide, 10-(5-((2-((4Z,7Z,10Z,13Z,16Z,19Z)-docosa-4,7,10,13,16,19-hexaenamido)ethyl)amino)-5-oxopentyl)-5,5-difluoro-1,3,7,9-tetramethyl-5H-dipyrrolo(1,2-c:2',1'-f)(1,3,2)diazaborinin-4-ium-5-uide]
Kd [1]: ~20 nM

CC/C=C\C/C=C\C/C=C\C/C=C\C/C=C\C/C=C\CCC(=O)NCCCC(CCCN)NC(=O)CCCC[C@@H]1SC[C@@H]2NC(=O)N[C@@H]21 (stereo partly drawn) [G1*, (4Z,7Z,10Z,13Z,16Z,19Z)-N-(7-amino-4-(5-((3aS,4S,6aR)-2-oxohexahydro-1H-thieno(3,4-d)imidazol-4-yl)pentanamido)heptyl)docosa-4,7,10,13,16,19-hexaenamide]
in-cell cross-linking (DSS), streptavidin pull-down, western blot [2]: confirming G1* binding to GPR110-HA in live HEK cells

CC/C=C\C/C=C\C/C=C\C/C=C\C/C=C\C/C=C\CCC(=O)NCCNC(=O)CCCC[C@@H]1SC[C@@H]2NC(=O)N[C@@H]21 [G1, (4Z,7Z,10Z,13Z,16Z,19Z)-N-(2-(5-((3aS,4S,6aR)-2-oxohexahydro-1H-thieno(3,4-d)imidazol-4-yl)pentanamido)ethyl)docosa-4,7,10,13,16,19-hexaenamide]
streptavidin pull-down and western blot [3]: hGPR110 showed G1 binding which was displaced by synaptamide | streptavidin pull-down and western blot [4]: confirming binding of G1 to the expressed mGPR110-HA
